The values that follow come from ChEMBL document CHEMBL1137642, “Growth and drug resistance phenotypes resulting from cytomegalovirus DNA polymerase region III mutations observed in clinical specimens” (Antimicrob Agents Chemother, 2007).

The structures appear in SMILES notation.

Assay [1] concerns Human betaherpesvirus 5. Description: Antiviral activity against Cytomegalovirus CMV T2420 with pol G841A mutant infected in HFF cells by SEAP reporter gene assay. It is filed as functional, organism-based. The settings on record: Human betaherpesvirus 5, T2420, HFF. In general terms: A reporter such as luciferase makes a cellular process visible.
The test system of assay [2] is Human betaherpesvirus 5. Nature of the assay: Antiviral activity against Cytomegalovirus CMV T2417 with pol A809V mutant infected in HFF cells by SEAP reporter gene assay. It is filed as functional, organism-based. The settings on record: Human betaherpesvirus 5, T2417, HFF.
Assay [3] has as its system Human betaherpesvirus 5. Nature of the assay: Antiviral activity against Cytomegalovirus CMV T2798 with pol T813S UL97 C592G double mutant infected in HFF cells by SEAP reporter gene assay. The note with it: Human betaherpesvirus 5, T2798, HFF. The format is functional, organism-based.
For assay [4], the system named is Human betaherpesvirus 5. Nature of the assay: Drug resistance, ratio of EC50 for Cytomegalovirus CMV T2417 pol A809V mutant to EC50 for Cytomegalovirus CMV T2211 by plaque reduction assay. It is filed as functional. In general terms: Plaque reduction counts the foci of infection that form in a cell layer.
The subject of assay [5] is Human betaherpesvirus 5. Nature of the assay: Antiviral activity against Cytomegalovirus CMV 2817 with pol G841A UL97 C592G double mutant infected in HFF cells by SEAP reporter gene assay. The settings on record: Human betaherpesvirus 5, T2817, HFF. The format is functional, organism-based.
Assay [6] concerns Human betaherpesvirus 5. Nature of the assay: Antiviral activity against Cytomegalovirus CMV T2211 infected in HFF cells by SEAP reporter gene assay. It is filed as functional, organism-based. The note with it: Human betaherpesvirus 5, T2211, HFF.
The test system of assay [7] is Human betaherpesvirus 5. Nature of the assay: Antiviral activity against Cytomegalovirus CMV T2542 with pol T813S mutant infected in HFF cells by SEAP reporter gene assay. The format is functional, organism-based. The note with it: Human betaherpesvirus 5, T2542, HFF.
Assay [8] concerns Human betaherpesvirus 5. Description: Antiviral activity against Cytomegalovirus CMV T2258 with UL97 C592G mutant infected in HFF cells by SEAP reporter gene assay. The note with it: Human betaherpesvirus 5, T2258, HFF. The format is functional, organism-based.
Assay [9] concerns Human betaherpesvirus 5. Description: Antiviral activity against Cytomegalovirus CMV T2784 with pol A809V UL97 C592G double mutant infected in HFF cells by SEAP reporter gene assay. The format is functional, organism-based. The note with it: Human betaherpesvirus 5, T2784, HFF.
Assay [10] relates to Human betaherpesvirus 5. Description: Drug resistance, ratio of EC50 for Cytomegalovirus CMV […] pol T813S mutant to EC50 for Cytomegalovirus CMV T2211 by SEAP reporter gene assay. It is filed as functional.
Assay [11] relates to Human betaherpesvirus 5. Nature of the assay: Drug resistance, ratio of EC50 for Cytomegalovirus CMV T2420 pol G841A mutant to EC50 for Cytomegalovirus CMV T2211 by SEAP reporter gene assay. The format is functional.
Assay [12] deals with Human betaherpesvirus 5. Nature of the assay: Drug resistance, ratio of EC50 for Cytomegalovirus CMV T2417 pol A809V mutant to EC50 for Cytomegalovirus CMV T2211 by SEAP reporter gene assay. The format is functional.
The subject of assay [13] is Human betaherpesvirus 5. Description: Drug resistance, ratio of EC50 for Cytomegalovirus CMV T2817 with pol G841A UL97 C592G double mutant to EC50 for Cytomegalovirus CMV T2211 by SEAP reporter gene assay. The format is functional.
Assay [14] deals with Human betaherpesvirus 5. Description: Drug resistance, ratio of EC50 for Cytomegalovirus CMV T2784 with pol A809V UL97 C592G double mutant to EC50 for Cytomegalovirus CMV T2211 by SEAP reporter gene assay. The format is functional.
Assay [15] has as its system Human betaherpesvirus 5. Nature of the assay: Drug resistance, ratio of EC50 for Cytomegalovirus CMV pol T821I mutant to EC50 for Cytomegalovirus CMV T2211 by SEAP reporter gene assay. The format is functional.
Assay [16] relates to Human betaherpesvirus 5. Nature of the assay: Drug resistance, ratio of EC50 for Cytomegalovirus CMV T2798 with pol T813S UL97 C592G double mutant to EC50 for Cytomegalovirus CMV T2211 by SEAP reporter gene assay. The format is functional.
Assay [17] concerns Human betaherpesvirus 5. Nature of the assay: Drug resistance, ratio of EC50 for Cytomegalovirus CMV pol A384P mutant to EC50 for Cytomegalovirus CMV T2211 by SEAP reporter gene assay. It is filed as functional.

By EC50 is commonly meant the concentration giving half of the maximal effect. Turning to `Nc1ccn(C[C@@H](CO)OCP(=O)(O)O)c(=O)n1.O.O` [CIDOFOVIR], the EC50 amounted to 0.58 µM in [1]; 0.42 µM in assay [2]; 0.37 µM in assay [3]; 0.67 µM in assay [5]; 0.22 µM in assay [6]; 0.6 µM in assay [7]. For the same compound, the EC50 in assay [8] stood at 0.27 µM; in assay [9], 0.45 µM. The “fold change (FC)” value in assay [4] came out at 1.6.
On to `O=C(O)P(=O)(O)O` [FOSCARNET], for which the concentration for a half-maximal effect (EC50) in assay [1] was 176 µM; in assay [2] it was 137 µM; in assay [3], 204 µM; in assay [5], 213 µM; in assay [6], 41 µM; in assay [7], 199 µM. The EC50 stood at 44 µM in [8] and 137 µM in assay [9]. The “fold change (FC)” value in assay [4] is reported as 6.3; in assay [10], 3; in [11] it was 3; in assay [12] it was 3.
Take `Nc1nc2c(ncn2COC(CO)CO)c(=O)[nH]1` [GANCICLOVIR]: the concentration giving a half-maximal response (EC50) in assay [1] was found to be 3.5 µM; in assay [2], 2.6 µM; in [3] it was 6.6 µM; in assay [5] it was 8.4 µM; in [6] it was 1.1 µM; in assay [7], 2.7 µM. For the same compound, the EC50 was found to be 3.9 µM in assay [8] and 6.1 µM in assay [9]. The “fold change (FC)” value worked out at 2 in assay [13]; 2 in [14]; 5 in assay [15]; 2 in assay [16]; 2.6 in assay [4]; 5 in assay [17].
